Experimental data as given in patent US20240174663A1, “PYRIMIDINE OR PYRIDINE DERIVATIVES USEFUL AS HCN2 MODULATORS” (King's College London, priority 2021, published 2024).
Where a name gives a salt, the structure may show the parent alone.

Key:
HCN4 = target: T1, HCN4 (Homo sapiens, UniProt Q9Y3Q4); assay: HCN4 assay using PatchXpress 7000A (PX protocol, Example 25); format: cell-based; conditions: room temperature
T1 sequence (Q9Y3Q4 1-1203): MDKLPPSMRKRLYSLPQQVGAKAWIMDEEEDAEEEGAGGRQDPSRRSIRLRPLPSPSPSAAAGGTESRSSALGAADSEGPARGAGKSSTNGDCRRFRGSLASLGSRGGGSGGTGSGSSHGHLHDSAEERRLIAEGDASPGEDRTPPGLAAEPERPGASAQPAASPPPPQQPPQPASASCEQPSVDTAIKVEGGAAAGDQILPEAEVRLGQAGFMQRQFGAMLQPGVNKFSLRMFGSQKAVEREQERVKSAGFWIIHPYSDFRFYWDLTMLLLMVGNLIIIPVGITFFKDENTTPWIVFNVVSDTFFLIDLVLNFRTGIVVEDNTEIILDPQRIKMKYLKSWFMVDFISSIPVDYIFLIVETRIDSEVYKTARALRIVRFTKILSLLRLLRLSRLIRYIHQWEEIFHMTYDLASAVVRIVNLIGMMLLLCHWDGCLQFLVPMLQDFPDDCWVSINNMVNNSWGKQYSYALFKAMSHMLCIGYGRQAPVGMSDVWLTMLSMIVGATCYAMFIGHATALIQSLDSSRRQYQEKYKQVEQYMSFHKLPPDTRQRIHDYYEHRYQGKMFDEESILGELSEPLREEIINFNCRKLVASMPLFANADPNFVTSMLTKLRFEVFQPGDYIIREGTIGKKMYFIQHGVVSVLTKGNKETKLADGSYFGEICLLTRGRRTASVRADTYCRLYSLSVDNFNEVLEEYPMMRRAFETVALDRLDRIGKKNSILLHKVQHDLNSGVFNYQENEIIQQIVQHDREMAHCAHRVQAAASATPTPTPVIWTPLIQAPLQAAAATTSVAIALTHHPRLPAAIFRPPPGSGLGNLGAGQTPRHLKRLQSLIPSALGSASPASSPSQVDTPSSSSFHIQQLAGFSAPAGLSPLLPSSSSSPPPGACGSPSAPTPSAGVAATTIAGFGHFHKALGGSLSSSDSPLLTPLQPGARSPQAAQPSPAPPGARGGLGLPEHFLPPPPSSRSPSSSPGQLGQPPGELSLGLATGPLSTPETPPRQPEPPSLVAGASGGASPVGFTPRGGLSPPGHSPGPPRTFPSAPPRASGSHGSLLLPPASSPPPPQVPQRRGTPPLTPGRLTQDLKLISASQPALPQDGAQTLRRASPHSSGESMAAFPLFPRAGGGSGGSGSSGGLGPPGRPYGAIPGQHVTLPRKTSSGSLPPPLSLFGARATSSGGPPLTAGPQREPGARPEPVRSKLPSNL
Method: Example 25: Assay for HCN1 HCN2 and HCN4 Using PatchXpress 7000A
Solutions for recording HCN currents were:
The peak inward current measured at the end of the pulse to −110 mV (HCN1 and HCN2) or −130 mV (HCN4) was measured and any leak current subtracted to calculate the HCN current. The HCN current amplitude was measured after each control or compound addition and normalized to the control amplitude (Control A).
All experiments were performed at room temperature (approximately 22° C.).
Each test compound concentration was applied to the cell for seven (7) minutes, at which point the next cumulative concentration was applied.

WT Black6 strain mice = assay: Mouse neuropathic pain model (partial sciatic nerve ligation), von Frey filament; format: in vivo
Method: The model used was analogous to the model described in Seltzer Z, Dubner […] novel behavioural model of neuropathic pain disorders produced in rats by partial sciatic nerve injury, Pain 43: 205-218). […] Sci Transl Med 9: eaam6072. […] The mechanical pain threshold was measured by manual von Frey filament applied to the hind paw on the operated side, using the “up-down” method.

[1] = system: mice (hearing thresholds); format: in vivo; conditions: adult mice, tone pulses 3 kHz to 42 kHz; 20 mg/kg ip
[2] = system: guinea pigs with salicylate-induced tinnitus; assay: Short-term (salicylate) tinnitus model, gap induced inhibition of the acoustic startle (GPIAS) test; format: in vivo, guinea pig; conditions: 5 mg/kg s.c.; salicylate 350 mg/kg i.p., 2 h
Source text: (§1) Tinnitus in guinea pigs was monitored using the gap induced inhibition of the acoustic startle (GPIAS) test (see FIG. 4). GPIAS is reduced when tinnitus was present; see Berger, J. I. et al. Effects of the cannabinoid CB1 agonist ACEA on salicylate ototoxicity, hyperacusis and tinnitus in guinea pigs. Hearing research, (2017), and Coomber, B. et al. Neural changes accompanying tinnitus following unilateral acoustic trauma in the guinea pig. Eur J Neurosci 40, 2427-2441, (2014).
In FIG. 4, sound stimulus (above) and corresponding pinna reflex (below) are shown in freely moving guinea pigs. Stimuli with no gap and gap are presented in a randomised order. Traces contaminated by movement (the upper trace in “no gap”) were removed before analysis.
Tinnitus was induced within 1-2 hours in humans by high doses of salicylate. A similar short-term tinnitus model was implemented in guinea pigs by i.p. injection of salicylate. In all animals, salicylate caused behavioural inhibition of GPIAS (see bar 2 in FIG. 5).
Salicylate (350 mg/kg, i.p.) impairs behavioural gap detection 2 h after salicylate administration (see bar 2 in of FIG. 5). Gap detection was restored by blocking HCN channels with ivabradine (5 mg/kg, s.c.).

[3] = system: mouse model of diabetic neuropathy; conditions: in vivo; cited from earlier work
[4] = Evaluation of CNS penetration: ivabradine in plasma, brain and auditory nerve; format: in vivo; conditions: guinea pig, brain (somatosensory cortex) / plasma, other: injection; 30 min after injection; read-out: amount detected in brain, % of plasma level
Source text: Ratios of total concentrations in preliminary experiments for plasma:brain:auditory nerve were 1:0.12:0.57 (n=2). The small amount (12% of plasma level) detected in brain is largely accounted for by the presence of ivabradine within the vascular supply of the brain. […] Pain 155, 1708-1719, (2014).

[5] = system: guinea pigs with noise-exposure induced tinnitus; assay: Noise-exposure tinnitus model, GPIAS test; format: in vivo, guinea pig
Source text: as §1
The noise-exposure model is more clinically relevant than the salicylate model, as it parallels a common cause of tinnitus in humans. A second important point is that it is long-term, while tinnitus induced by salicylate is rapidly reversed following salicylate exposure.
GPIAS returns following drug wash-out (see bar D in FIG. 6).

[6] = system: mouse models of neuropathic pain; conditions: nerve injury, cancer chemotherapy and diabetic neuropathy models; cited from earlier work

Structure (SMILES)	IC50 (HCN4)	mechanical analgesic effect (mechanical pain threshold, von Frey) (WT Black6 strain mice; 1 mg/kg i.p., day 5 after partial sciatic nerve ligation, operated hind paw)	hyperalgesia in contralateral (unoperated) hind paw (WT Black6 strain mice; i.p., mice after partial sciatic nerve ligation)	ABR threshold or latency versus untreated [1]	behavioural gap detection (GPIAS) after salicylate [2]	analgesia in mouse model of diabetic neuropathy [3]	Kp at 30 min [4]	reduced GPIAS following noise exposure ([5]; 5 mg/kg s.c., unilateral noise exposure 110 dB, 1 h, 8 weeks prior)	effect on GPIAS in noise-exposed guinea pigs showing no behavioural evidence of tinnitus ([5]; control experiments, n=3)	analgesia in mouse models of neuropathic pain [6]
Cc1ccc(C#N)nc1C[C@H](N)c1ncccc1-c1noc2ccccc12 [Example 4, (S)-6-{2-Amino-2-[3-(benzo[d]isoxazol-3-yl)pyridine-2-yl]ethyl}-5-methylpyridin-2-carbonitrile hydrochloride]	5.2 µM	full analgesia	No hyperalgesia observed							
COc1cc2c(cc1OC)CC(=O)N(CCCN(C)C[C@H]1Cc3cc(OC)c(OC)cc31)CC2 [ivabradine]				no significant difference in ABR threshold or latency	restored	complete analgesia	0.12	rapidly and completely reversed	without effect	effective analgesic
